Test results from the RepoRT retention time repository.
Where a name gives a salt, the structure may show the parent alone.

Assay: HILIC, Merck SeQuant ZIC-HILIC, 25 °C, 0.25 mL/min; A: water + 16 mM ammonium formate; B: acetonitrile + 0.1% formic acid, pH 3; gradient (min/%B) 0/97 2/97 10/70 15/10 17/10 18/97 25/97
Settings: stereoisomer not certain

SMILES | LC retention time
CC(C)CC(O)C(=O)O (centres undefined) [2-Hydroxyisocaproic acid] | 1.91 min
C=C(OP(=O)(O)O)C(=O)[O-] [PHOSPHOENOLPYRUVATE] | 14.7 min
Cn1c(=O)[nH]c(=O)c2c1[nH]c(=O)n2C [3-7-Dimethyluric acid] | 2.24 min
c1ccc(CNc2ccccc2)cc1 [N-benzylaniline] | 1.54 min
Cc1c[nH]c(=O)[nH]c1=O [THYMINE] | 2.14 min
NCCc1cc(O)c(O)cc1O [6-HYDROXYDOPAMINE] | 12.6 min
C=Cc1c(C)c2cc3[nH]c(cc4nc(cc5nc(cc1[nH]2)C(C)=C5CCC(=O)O)C(CCC(=O)O)=C4C)c(C)c3C=C [PROTOPORPHYRIN] | 1.81 min
CC(=O)NC1C(O)CC(O)(C(=O)O)OC1C(O)C(O)CO (centres undefined) [N-Acetylneuraminic acid] | 13.9 min
Nc1nc2c(ncn2C2OC(COP(=O)(O)O)C(O)C2O)c(=O)[nH]1 (centres undefined) [GUANOSINE MONOPHOSPHATE] | 14.7 min
O=C(O)C1OC(OP(=O)(O)OP(=O)(O)OCC2OC(n3ccc(=O)[nH]c3=O)C(O)C2O)C(O)C(O)C1O (centres undefined) [URIDINE DIPHOSPHATE GLUCURONIC ACID] | 15.3 min
O=c1c(O)c(-c2ccc(O)c(O)c2)oc2cc(O)cc(O)c12 [quercetine dihydrate] | 2.16 min
Nc1nc2c(c(=O)[nH]1)N=C(CNc1ccc(C(=O)NC(CCC(=O)O)C(=O)O)cc1)CN2 (centres undefined) [DIHYDROFOLATE] | 12.4 min
NCCC(=O)NC(Cc1cnc[nH]1)C(=O)O (centres undefined) [CARNOSINE] | 16 min
O=C(O)CCCCC1CCSS1 (racemic) | 1.66 min
O=c1[nH]c(=O)c2[nH]c(=O)[nH]c2[nH]1 [URATE] | 11.2 min
NCCc1ccccc1 [PHENETHYLAMINE] | 10.2 min
CCCCC(N)C(=O)O (centres undefined) [NORLEUCINE] | 11.2 min
O=C([O-])C(O)c1ccccc1 (centres undefined) [MANDELATE] | 2.08 min
NC(CSCC(=O)O)C(=O)O (centres undefined) [S-CARBOXYMETHYLCYSTEINE] | 14.4 min
CC(CCC(=O)O)C1CCC2C3C(=O)CC4CC(O)CCC4(C)C3CC(=O)C12C (centres undefined) [5b-cholanic acid-3a-OL-7-12-DIONE] | 1.92 min
CCCCC(CC)COC(=O)c1ccccc1C(=O)OCC(CC)CCCC (centres undefined) [BIS(2-ETHYLHEXYL)PHTHALATE] | 1.48 min
CC(=O)OCC(=O)O [Acetoxyacetic acid] | 2.23 min
CC(=O)NCCCCN [N-ACETYLPUTRESCINE] | 12.9 min
CSCCC(NC(C)=O)C(=O)O (centres undefined) [N-ACETYLMETHIONINE] | 2.18 min

SMILES | LC retention time
CCCCCCCCC=CCCCCCCCCCCCCCC(=O)[O-] [NERVONATE] | 1.52 min
Nc1ncnc2c1ncn2C1OC(COP(=O)(O)O)C(OP(=O)(O)O)C1O (centres undefined) [ADENOSINE 3'-5'-DIPHOSPHATE] | 14.9 min
CC(=O)NC(CC(N)=O)C(=O)O (centres undefined) [N-ACETYLASPARAGINE] | 9.75 min
C[S+](CCC(N)C(=O)[O-])CC1OC(n2cnc3c(N)ncnc32)C(O)C1O (centres undefined) [S-ADENOSYLMETHIONINE] | 15.9 min
O=C(O)c1cc(=O)c2ccccc2[nH]1 [Kynurenic acid] | 9.58 min
NC(CS(=O)O)C(=O)O (centres undefined) [3-SULFINOALANINE] | 14.4 min
O=C(O)c1c(O)cccc1O [2-6-Dihydroxybenzoic acid] | 2.07 min
CSCCC(O)C(=O)O (centres undefined) [2-HYDROXY-4-(METHYLTHIO)BUTANOATE] | 1.99 min
C[N+](C)(C)[O-] [trimethylamine N-oxide] | 11.9 min
Nc1ncnc2c1ncn2C1CC(O)C(COP(=O)(O)OP(=O)(O)O)O1 (centres undefined) [2'-DEOXYADENOSINE 5'-DIPHOSPHATE] | 14.6 min
O=C(O)c1cccc(O)c1O [2-3-DIHYDROXYBENZOATE] | 2.14 min
O=C([O-])c1cc(=O)[nH]c(=O)[nH]1 [OROTATE] | 10.9 min
COC(=O)CCCCC(=O)O [mono-Methyl adipate] | 1.71 min
COC1C(O)C(CO)OC1n1cnc2c(=O)[nH]cnc21 (centres undefined) [2'-O-Methylinosine] | 8.49 min
NC(C(=O)O)C(O)C(O)C(O)CO (centres undefined) [GLUCOSAMINATE] | 14.7 min
CC(C)CC(=O)OC(CC(=O)[O-])C[N+](C)(C)C [Isovaleryl-L-carnitine] | 10.2 min
O=C(O)c1ccc2ccccc2n1 [2-QUINOLINECARBOXYLATE] | 2.13 min
O=C(O)c1cc(=O)c2cccc(O)c2[nH]1 [XANTHURENATE] | 10.4 min
O=C(O)C(O)Cc1ccc(O)cc1 (centres undefined) [HYDROXYPHENYLLACTATE] | 5.36 min
NC(=O)c1ccccc1O [SALICYLAMIDE] | 1.74 min
Nc1ccn(C2OC(COP(=O)(O)OP(=O)(O)O)C(O)C2O)c(=O)n1 (centres undefined) [CYTIDINE DIPHOSPHATE] | 15.4 min
O=C(O)c1cccc[n+]1[O-] [Picolinic acid N-oxide] | 1.9 min
CC(=O)OCC(N)C(=O)O (centres undefined) [O-ACETYLSERINE] | 12.4 min
CC(C)(CC(=O)O)C(=O)O [2-2-Dimethylsuccinic acid] | 2.18 min

SMILES | LC retention time
NCC[Se][Se]CCN [SELENOCYSTAMINE] | 16.9 min
NCCCCN [PUTRESCINE] | 17.4 min
COC(=O)Cc1c[nH]c2ccccc12 [INDOLE-3-METHYL ACETATE] | 1.61 min
NCCc1cnc[nH]1 [HISTAMINE] | 17 min
O=C(O)c1cncc(O)c1 [5-Hydroxynicotinic acid] | 6.4 min
C#CC1(O)CCC2C3CCc4cc(O)ccc4C3CCC21C (centres undefined) [17a-Ethynylestradiol] | 1.68 min
COC1=C(OC)C(=O)C(CC=C(C)C)=C(C)C1=O [coenzyme Q1] | 1.53 min
O=C(O)c1ccc(O)cc1O [2-4-Dihydroxybenzoic acid] | 2.18 min
Oc1ccc2[nH]ccc2c1 [5-Hydroxyindole] | 2 min
COC(=O)Cc1ccc(O)cc1 [Methyl 4-hydroxyphenylacetate] | 1.67 min
OC1CCCCC1O (stereo not drawn) [TRANS-CYCLOHEXANEDIOL] | 1.85 min
NC(N)=S [THIOUREA] | 5.07 min
O=C(O)Cc1cnc[nH]1 [4-IMIDAZOLEACETATE] | 13.6 min
CNC(CCC(=O)O)C(=O)O (centres undefined) [N-METHYLGLUTAMATE] | 13.9 min
NC(N)=NCCC[C@H](N)C(=O)O [L-Arginine] | 16 min
NC(=O)C1=CN(C2OC(COP(=O)(O)OP(=O)(O)OCC3OC(n4cnc5c(N)ncnc54)C(OP(=O)(O)O)C3O)C(O)C2O)C=CC1 (centres undefined) [NADPH] | 15 min
CCCCCCCCCCCCCC(=O)OC(CO)COP(=O)(O)OCCN (centres undefined) [14-0_LysoPE] | 10.3 min
Cn1c[n+](C2OC(CO)C(O)C2O)c2nc(N)[nH]c(=O)c21 (centres undefined) [7-Methylguanosine] | 12.9 min
O=C(O)C(O)C(O)C(O)C(O)CO (centres undefined) [GLUCONATE] | 13.6 min
COC(=O)C(=O)OC [Dimethyl oxalate] | 2.24 min
OCc1ccccc1O [2-Hydroxybenzyl alcohol ( Salicyl alcohol- Saligenin)] | 1.95 min
C[n+]1cccc(C(=O)[O-])c1 [TRIGONELLINE] | 13 min
CC(O)(CC(=O)O)CC(=O)O [3-HYDROXYMETHYLGLUTARATE] | 4.96 min
CC(C)C(O)C(=O)O (centres undefined) | 1.94 min

SMILES | LC retention time
Nc1ccn(C2CC(O)C(COP(=O)(O)O)O2)c(=O)n1 (centres undefined) [DEOXYCYTIDINE MONOPHOSPHATE] | 14.5 min
O=C(O)CC(O)C(=O)O (centres undefined) [MALATE] | 8.89 min
CC(=O)NCCc1c[nH]c2ccc(O)cc12 [N-ACETYLSEROTONIN] | 2.15 min
CC1OC(OCC2OC(Oc3c(-c4ccc(O)c(O)c4)oc4cc(O)cc(O)c4c3=O)C(O)C(O)C2O)C(O)C(O)C1O (centres undefined) [rutin hydrate] | 10.6 min
Cn1cnc2c(ncn2C2OC(CO)C(O)C2O)c1=N (centres undefined) [1-METHYLADENOSINE] | 12.8 min
CNCC(=O)O [SARCOSINE] | 13.6 min
Nc1c(O)cccc1C(=O)CC(N)C(=O)O (centres undefined) [HYDROXYKYNURENINE] | 12 min
O=C(O)c1cccc(O)c1 [3-HYDROXYBENZOATE] | 2.15 min
CC(CCC(=O)O)C1CCC2C3C(O)C(O)C4CC(O)CCC4(C)C3CCC12C (centres undefined) [5b-cholanic acid-3a-6a-7a-TRIOL] | 2.19 min
Cc1cc2nc3c(=O)[nH]c(=O)nc-3n(CC(O)C(O)C(O)COP(=O)(O)OP(=O)(O)OCC3OC(n4cnc5c(N)ncnc54)C(O)C3O)c2cc1C (centres undefined) [FAD] | 13.8 min
O=Cc1ccc(O)cc1 [4-HYDROXYBENZALDEHYDE] | 1.77 min
Nc1nc2c(ncn2C2OC(CO)C(O)C2O)c(=O)[nH]1 (centres undefined) [GUANOSINE] | 11.4 min
Cn1c(=O)[nH]c2nc[nH]c2c1=O [1-Methylxanthine] | 2.14 min
CC(=O)C1CCC2C3CC=C4CC(OS(=O)(=O)O)CCC4(C)C3CCC12C (centres undefined) [pregnenolone sulfate] | 2.05 min
O=c1cccc[nH]1 [2-HYDROXYPYRIDINE] | 2.15 min
CC(CC(=O)O)C(=O)O (centres undefined) [Methyl-succinic acid] | 2.18 min
CC(=O)NC(Cc1ccccc1)C(=O)O (centres undefined) [N-ACETYLPHENYLALANINE] | 1.95 min
Cc1cnc(C)cn1 [2-5-DIMETHYLPYRAZINE] | 2.19 min
Cc1ncc(C[n+]2csc(CCOP(=O)(O)O)c2C)c(N)n1 [THIAMINE MONOPHOSPHATE] | 16.4 min
Cc1ncc(COP(=O)(O)O)c(C=O)c1O [PYRIDOXAL-PHOSPHATE] | 11.8 min
OCC1OC(OCC2OC(OC3(CO)OC(CO)C(O)C3O)C(O)C(O)C2O)C(O)C(O)C1O (centres undefined) [RAFFINOSE] | 14.6 min
Nc1nc2c(ncn2C2OC3COP(=O)(O)OC3C2O)c(=O)[nH]1 (centres undefined) [CYCLIC GMP] | 13.4 min
